Data published in patent US8742117B2, “Oxime derivatives” (Cadila Healthcare Limited, priority 2008, dated 2014).

Key:
human GPR 119 receptor = target: T1, human GPR 119 receptor (Homo sapiens, UniProt Q8TDV5); experiment: cAMP assay in stable cell line expressing recombinant human GPR 119 receptor; assay type: cell-based; settings: intracellular cAMP, recombinant human GPR 119 cell line
T1 construct: expressed in transfected cells
T1 sequence (Q8TDV5 1-335): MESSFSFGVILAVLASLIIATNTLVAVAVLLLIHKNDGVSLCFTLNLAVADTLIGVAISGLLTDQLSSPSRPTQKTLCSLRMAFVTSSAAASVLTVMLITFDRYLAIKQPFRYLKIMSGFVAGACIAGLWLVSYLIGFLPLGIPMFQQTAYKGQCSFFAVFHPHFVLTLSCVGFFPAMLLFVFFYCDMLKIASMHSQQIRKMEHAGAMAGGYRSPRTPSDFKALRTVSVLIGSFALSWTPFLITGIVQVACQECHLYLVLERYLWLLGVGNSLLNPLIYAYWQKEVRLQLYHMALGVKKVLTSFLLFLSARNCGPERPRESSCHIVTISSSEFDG
Source text: A stable cell line expressing recombinant human GPR 119 receptor was established and used to investigate the efficacy of the compounds of the invention based on the intracellular levels of cyclic AMP (cAMP) using commercially available cAMP kits. Compounds of the invention produced a concentration dependent increase in cAMP level and EC50 values of representative compounds were provided in table 1 and table 2 respectively.

Sprague Dawley rats = experiment: Feed intake in Sprague Dawley rats; assay type: in vivo, rat; settings: 25 mg/kg i.p., cumulative feed intake vs vehicle control
Source text: In Vivo Efficacy Studies: Feed Intake in Sprague Dawley Rats:
Sprague Dawley rats of 6-8 week age were be used for this experiment they were be kept for acclimatization in reversed light/dark cycle for 15 days. Animals will have free access to a standard chow diet and water during acclimatization period. After 15 days reversed light/dark cycle acclimatization animals were trained for fasting induced feed intake for 5 days till they show consistent feed intake. Grouping was done based on the monitored feed intake the training days. On treatment day each group of animals were dosed with test compound or vehicle by appropriate routes of administration (orally or intraperitoneally). Exactly 30 min. after treatment, measured amount of standard chow diet was provided and recorded as 0-min feed offered. Then subsequently 2, 4, 6 and 24 hour after 0-min, feed intake was measured and the cumulative feed intakes were calculated. The change in cumulative feed intake as compare to vehicle treated control at each time point was calculated for test compound and results were provided in table 2

% activity at 1 μM (human GPR 119 receptor) | SMILES | other results
31.37% | CC(=NOc1ncnc(N2CCC(c3nc(C(C)C)no3)CC2)c1[N+](=O)[O-])c1cccnc1 [Example 10, 1-(pyridin-3-yl)ethanone O-6-(4-(3-isopropyl-1,2,4-oxadiazol-5-yl)piperidin-1-yl)-5-nitropyrimidin-4-yl oxime] | % reduction in food in take 2 hour (Sprague Dawley rats): 38%; % reduction in food in take 4 hour (Sprague Dawley rats): 31%; % reduction in food in take 6 hour (Sprague Dawley rats): 25.4%; % reduction in food in take 24 hour (Sprague Dawley rats): 10%
10.2% | CCCCC(=NOc1ncnc(N2CCC(c3nc(C(C)C)no3)CC2)c1[N+](=O)[O-])c1ccccc1 [Example 26, 1-phenylpentan-1-one O-6-(4-(3-isopropyl-1,2,4-oxadiazol-5-yl)piperidin-1-yl)-5-nitropyrimidin-4-yloxime] | 
62.46% | CC(=NOc1ncnc(N2CCC(c3nc(C(C)C)no3)CC2)c1[N+](=O)[O-])c1cc2ccccc2o1 [Example 1, 1-(benzofuran-2-yl)ethanone O-6-(4-(3-isopropyl-1,2,4-oxadiazol-5-yl)piperidin-1-yl)-5-nitropyrimidin-4-yl oxime] | EC50 (human GPR 119 receptor): 802 nM
40.68% | CC(=NOc1ncnc(N2CCC(c3nc(C(C)C)no3)CC2)c1C)c1cc2ccccc2o1 [Example 19, 1-(benzofuran-2-yl)ethanone O-6-(4-(3-isopropyl-1,2,4-oxadiazol-5-yl)piperidin-1-yl)-5-methylpyrimidin-4-yl oxime] | 
103.98% | CC(=NOc1ncnc(N2CCC(c3nc(C(C)C)no3)CC2)c1[N+](=O)[O-])c1ccc(S(C)(=O)=O)cc1 [Example 11, 1-(4-(methylsulfonyl)phenyl)ethanone O-6-(4-(3-isopropyl-1,2,4-oxadiazol-5-yl)piperidin-1-yl)-5-nitropyrimidin-4-yl oxime] | % reduction in food in take 2 hour (Sprague Dawley rats): 76.2%; % reduction in food in take 4 hour (Sprague Dawley rats): 43.1%; % reduction in food in take 6 hour (Sprague Dawley rats): 36%; % reduction in food in take 24 hour (Sprague Dawley rats): 17%
104.77% | CC(=NOc1ncnc(N2CCC(c3nc(C(C)C)no3)CC2)c1[N+](=O)[O-])c1ccc(F)cc1 [Example 9, 1-(4-fluorophenyl)ethanone O-6-(4-(3-isopropyl-1,2,4-oxadiazol-5-yl)piperidin-1-yl)-5-nitropyrimidin-4-yl oxime] | EC50 (human GPR 119 receptor): 746 nM; % reduction in food in take 2 hour (Sprague Dawley rats): 41%; % reduction in food in take 4 hour (Sprague Dawley rats): 31%; % reduction in food in take 6 hour (Sprague Dawley rats): 23%; % reduction in food in take 24 hour (Sprague Dawley rats): 12%
31.37% | CC(=NOc1ncnc(N2CCC(c3nc(C(C)C)no3)CC2)c1[N+](=O)[O-])c1ccc2c(c1)CCCC2 [Example 18, 1-(5,6,7,8-tetrahydronaphthalen-2-yl)ethanone O-6-(4-(3-isopropyl-1,2,4-oxadiazol-5-yl)piperidin-1-yl)-5-nitropyrimidin-4-yl oxime] | 
19.43% | CC(C)c1noc(C2CCN(c3ncnc(ON=C(c4ccccc4)c4ccccc4)c3[N+](=O)[O-])CC2)n1 [Example 21, Benzophenone O-6-(4-(3-isopropyl-1,2,4-oxadiazol-5-yl)piperidin-1-yl)-5-nitropyrimidin-4-yl oxime] | 
93.76% | CC(=NOc1ncnc(N2CCC(c3nc(C(C)C)no3)CC2)c1[N+](=O)[O-])c1ccc(OC(F)(F)F)cc1 [Example 13, 1-(4-(trifluoromethoxy)phenyl)ethanone O-6-(4-(3-isopropyl-1,2,4-oxadiazol-5-yl)piperidin-1-yl)-5-nitropyrimidin-4-yl oxime] | EC50 (human GPR 119 receptor): 242 nM
33.4% | CC(=NOc1ncnc(N2CCC(c3nc(C(C)C)no3)CC2)c1[N+](=O)[O-])c1cccs1 [Example 28, 1-(thiophen-2-yl)ethanone O-6-(4-(3-isopropyl-1,2,4-oxadiazol-5-yl)piperidin-1-yl)-5-nitropyrimidin-4-yl oxime] | 
37.75% | CC(=NOc1ncnc(N2CCC(c3nc(C(C)C)no3)CC2)c1[N+](=O)[O-])c1ccc(C)cc1 [Example 2, 1-p-tolylethanone O-6-(4-(3-isopropyl-1,2,4-oxadiazol-5-yl)piperidin-1-yl)-5-nitropyrimidin-4-yl oxime] | 
32.16% | CC(=NOc1ncnc(N2CCC(c3nc(C(C)C)no3)CC2)c1C)c1ccccc1 [Example 32, Acetophenone O-6-(4-(3-isopropyl-1,2,4-oxadiazol-5-yl)piperidin-1-yl)-5-methylpyrimidin-4-yloxime] | 
59.34% | CC(=NOc1ncnc(N2CCC(c3nc(C(C)C)no3)CC2)c1[N+](=O)[O-])c1ccccc1 [Example 33, Acetophenone O-6-(4-(3-isopropyl-1,2,4-oxadiazol-5-yl)piperidin-1-yl)-5-nitropyrimidin-4-yl oxime] | 

More lines, now with the values behind:

SMILES | % activity at 1 μM (human GPR 119 receptor) | other results
CCCCC(=NOc1ncnc(N2CCC(c3nc(C(C)C)no3)CC2)c1C)c1ccccc1 [Example 30, 1-phenylpentan-1-one O-6-(4-(3-isopropyl-1,2,4-oxadiazol-5-yl)piperidin-1-yl)-5-methylpyrimidin-4-yl oxime] | 24.65% | 
CC(=NOc1ncnc(N2CCC(c3nc(C(C)C)no3)CC2)c1C)c1ccc(OC(F)(F)F)cc1 [Example 16, 1-(4-(trifluoromethoxy)phenyl)ethanone O-6-(4-(3-isopropyl-1,2,4-oxadiazol-5-yl)piperidin-1-yl)-5-methylpyrimidin-4-yl oxime] | 78.54% | % reduction in food in take 2 hour (Sprague Dawley rats): 43%; % reduction in food in take 4 hour (Sprague Dawley rats): 25%; % reduction in food in take 6 hour (Sprague Dawley rats): 16%; % reduction in food in take 24 hour (Sprague Dawley rats): 4.5%
Cc1c(ON=C(c2ccccc2)c2ccccc2)ncnc1N1CCC(c2nc(C(C)C)no2)CC1 [Example 20, Benzophenone O-6-(4-(3-isopropyl-1,2,4-oxadiazol-5-yl)piperidin-1-yl)-5-methylpyrimidin-4-yl oxime] | 24.55% | 
Cc1c(ON=C(c2ccc(F)cc2)c2ccc(F)cc2)ncnc1N1CCC(c2nc(C(C)C)no2)CC1 [Example 29, bis(4-fluorophenyl)methanone O-6-(4-(3-isopropyl-1,2,4-oxadiazol-5-yl)piperidin-1-yl)-5-methylpyrimidin-4-yl oxime] | 13.7% | 
CC(=NOc1ncnc(N2CCC(c3nc(C(C)C)no3)CC2)c1C)c1ccc2c(c1)CCCC2 [Example 17, 1-(5,6,7,8-tetrahydronaphthalen-2-yl)ethanone O-6-(4-(3-isopropyl-1,2,4-oxadiazol-5-yl)piperidin-1-yl)-5-methylpyrimidin-4-yl oxime] | 29.24% | 
CC(=NOc1ncnc(N2CCC(c3nc(C(C)C)no3)CC2)c1[N+](=O)[O-])c1ccc(-c2ccccc2)cc1 [Example 25, 1-(biphenyl-4-yl)ethanone O-6-(4-(3-isopropyl-1,2,4-oxadiazol-5-yl)piperidin-1-yl)-5-nitropyrimidin-4-yl oxime] | 32.0% | 
CC(=NOc1ncnc(N2CCC(c3nc(C(C)C)no3)CC2)c1C)c1ccc(-c2ccccc2)cc1 [Example 24, 1-(biphenyl-4-yl)ethanone O-6-(4-(3-isopropyl-1,2,4-oxadiazol-5-yl)piperidin-1-yl)-5-methylpyrimidin-4-yl oxime] | 8.7% | 
CC(=NOc1ncnc(N2CCC(c3nc(C(C)C)no3)CC2)c1C)c1ccc2c(c1)OCO2 [Example 5, 1-(benzo[d][1,3]dioxol-5-yl)ethanone O-6-(4-(3-isopropyl-1,2,4-oxadiazol-5-yl)piperidin-1-yl)-5-methylpyrimidin-4-yl oxime] | 58.37% | % reduction in food in take 2 hour (Sprague Dawley rats): 39%; % reduction in food in take 4 hour (Sprague Dawley rats): 40%; % reduction in food in take 6 hour (Sprague Dawley rats): 31%; % reduction in food in take 24 hour (Sprague Dawley rats): 8.2%
CC(C)c1noc(C2CCN(c3ncnc(ON=C(c4ccc(F)cc4)c4ccc(F)cc4)c3[N+](=O)[O-])CC2)n1 [Example 31, bis(4-fluorophenyl)methanone O-6-(4-(3-isopropyl-1,2,4-oxadiazol-5-yl)piperidin-1-yl)-5-nitropyrimidin-4-yl oxime] | 12.18% | 
CC(=NOc1ncnc(N2CCC(c3nc(C(C)C)no3)CC2)c1C)c1ccc(S(C)(=O)=O)cc1 [Example 3, 1-(4-(methylsulfonyl)phenyl)ethanone O-6-(4-(3-isopropyl-1,2,4-oxadiazol-5-yl)piperidin-1-yl)-5-methylpyrimidin-4-yl oxime] | 73.40% | 
CC(=NOc1ncnc(N2CCC(c3nc(C(C)C)no3)CC2)c1C)c1cccnc1 [Example 12, 1-(pyridin-3-yl)ethanone O-6-(4-(3-isopropyl-1,2,4-oxadiazol-5-yl)piperidin-1-yl)-5-methylpyrimidin-4-yl oxime] | 20.32% | 
